According to the NIST ThermoML archive (doi:10.1016/j.fluid.2014.01.003):
Numbers after ± are expanded uncertainties.

Experiments:
[1] = xn = mol fraction of the nth substance listed; conditions: 298.2 K, 101 kPa, Liquid, Camera Imaging
[2] = 101.33 kPa, Liquid, Cone and plate viscometry
[3] = refractive index (Na D-line) (dimensionless); conditions: 101.33 kPa, Liquid, Standard Abbe refractometry
[4] = φn = volume fraction of the nth substance listed; conditions: 101 kPa, Liquid, Camera Imaging, φ1 = 0.5

| viscosity ([2]; 298.2 K) | viscosity ([2]; 308.2 K) | viscosity ([2]; 318.2 K) | viscosity ([2]; 328.2 K) | viscosity ([2]; 338.2 K) | refractive index ([3]; 298.2 K) | refractive index ([3]; 318.2 K) | refractive index ([3]; 328.2 K) | refractive index ([3]; 338.2 K) | binary diffusion coefficient ([4]; 298.2 K) | Compound | also measured |
| --- | --- | --- | --- | --- | --- | --- | --- | --- | --- | --- | --- |
|  |  |  |  |  |  |  |  |  |  | OCCO [1,2-ethanediol] + O | binary diffusion coefficient ([1]; x1 = 0.0323): 1.23e-09 m2/s; binary diffusion coefficient ([1]; x1 = 0.0698): 8.36e-10 m2/s; binary diffusion coefficient ([1]; x1 = 0.114): 7.12e-10 m2/s; binary diffusion coefficient ([1]; x1 = 0.1667): 6.38e-10 m2/s; binary diffusion coefficient ([1]; x1 = 0.242): 5.86e-10 m2/s; binary diffusion coefficient ([1]; x1 = 0.3104): 5.02e-10 m2/s; binary diffusion coefficient ([1]; x1 = 0.4119): 4.33e-10 m2/s; binary diffusion coefficient ([1]; x1 = 0.5456): 3.2e-10 m2/s; binary diffusion coefficient ([1]; x1 = 0.7298): 2.84e-10 m2/s |
| 34 ± 1 mPa·s | 22 ± 1 mPa·s | 15 ± 1 mPa·s | 11 ± 1 mPa·s | 7.8 ± 1 mPa·s | 1.4023 ± 0.0004 | 1.3993 ± 0.0004 | 1.3988 ± 0.0004 | 1.3975 ± 0.0004 |  | Cn1cc[n+](C)c1.F[B-](F)(F)F [1,3-dimethyl-1H-imidazolium tetrafluoroborate] |  |
|  |  |  |  |  |  |  |  |  | 6.87e-10 m2/s | Cn1cc[n+](C)c1.F[B-](F)(F)F [1,3-dimethyl-1H-imidazolium tetrafluoroborate] + O | binary diffusion coefficient ([4]; 308.2 K): 7.74e-10 m2/s; binary diffusion coefficient ([4]; 318.2 K): 8.45e-10 m2/s; binary diffusion coefficient ([4]; 328.2 K): 9.62e-10 m2/s; binary diffusion coefficient ([4]; 338.2 K): 1.06e-09 m2/s |
|  |  |  |  |  |  |  |  |  | 2.53e-10 m2/s | CCCCn1cc[n+](C)c1.N#CN=C=[N-] [1-butyl-3-methylimidazolium dicyanamide] + O |  |
|  |  |  |  |  |  |  |  |  | 3.13e-10 m2/s | CCCCn1cc[n+](C)c1.O=[N+]([O-])[O-] [1-butyl-3-methylimidazolium nitrate] + O |  |
| 146 ± 4 mPa·s | 76 ± 2 mPa·s | 45 ± 1 mPa·s | 29 ± 1 mPa·s | 21 ± 1 mPa·s | 1.4184 ± 0.0004 | 1.4142 ± 0.0004 | 1.4125 ± 0.0004 | 1.4106 ± 0.0004 |  | CCCCn1cc[n+](C)c1.F[B-](F)(F)F [1-butyl-3-methylimidazolium tetrafluoroborate] | refractive index ([3]; 308.2 K): 1.4163 ± 0.0004 |
|  |  |  |  |  |  |  |  |  | 1.24e-10 m2/s | CCCCn1cc[n+](C)c1.F[B-](F)(F)F [1-butyl-3-methylimidazolium tetrafluoroborate] + O | binary diffusion coefficient ([4]; 308.2 K): 2.56e-10 m2/s; binary diffusion coefficient ([4]; 318.2 K): 3.83e-10 m2/s; binary diffusion coefficient ([4]; 328.2 K): 5.13e-10 m2/s; binary diffusion coefficient ([4]; 338.2 K): 6.45e-10 m2/s |
| 0.9 mPa·s | 0.72 mPa·s | 0.61 mPa·s | 0.5 mPa·s | 0.43 mPa·s | 1.3325 ± 0.0005 | 1.3299 ± 0.0005 | 1.3282 ± 0.0005 | 1.3275 ± 0.0005 |  | O [water] | refractive index ([3]; 308.2 K): 1.3313 ± 0.0005 |

| Compound | viscosity ([2]; 298.2 K) | viscosity ([2]; 308.2 K) | viscosity ([2]; 318.2 K) | viscosity ([2]; 328.2 K) | viscosity ([2]; 338.2 K) | refractive index ([3]; 298.2 K) | refractive index ([3]; 318.2 K) | refractive index ([3]; 328.2 K) | refractive index ([3]; 338.2 K) | binary diffusion coefficient ([4]; 298.2 K) | also measured |
| --- | --- | --- | --- | --- | --- | --- | --- | --- | --- | --- | --- |
| CCn1cc[n+](C)c1.N#CN=C=[N-] [1-ethyl-3-methylimidazolium dicyanamide] + O |  |  |  |  |  |  |  |  |  | 7.25e-10 m2/s |  |
| CCn1cc[n+](C)c1.[O-][Cl+3]([O-])([O-])[O-] [1-ethyl-3-methylimidazolium perchlorate] + O |  |  |  |  |  |  |  |  |  | 1.93e-10 m2/s |  |
| CCn1cc[n+](C)c1.F[B-](F)(F)F [1-ethyl-3-methylimidazolium tetrafluoroborate] | 45 ± 1 mPa·s | 27 ± 1 mPa·s | 19 ± 1 mPa·s | 14 ± 1 mPa·s | 11 ± 1 mPa·s | 1.4098 ± 0.0004 | 1.4065 ± 0.0004 | 1.4053 ± 0.0004 | 1.4035 ± 0.0004 |  | refractive index ([3]; 308.2 K): 1.4082 ± 0.0004 |
| CCn1cc[n+](C)c1.F[B-](F)(F)F [1-ethyl-3-methylimidazolium tetrafluoroborate] + O |  |  |  |  |  |  |  |  |  | 3.42e-10 m2/s | binary diffusion coefficient ([4]; 308.2 K): 4.65e-10 m2/s; binary diffusion coefficient ([4]; 318.2 K): 5.57e-10 m2/s; binary diffusion coefficient ([4]; 328.2 K): 6.72e-10 m2/s; binary diffusion coefficient ([4]; 338.2 K): 7.89e-10 m2/s |
